In one assay the test system is Epstein-Barr virus. The following applies: reported in literature (Hirota M. et al., 1979); cited from earlier work.
For assay [1] the following is noted: reported in literature (Hirota M. et al., 1979); cited from earlier work.
The next assay has as its system NK92 cells. The format is cell-based, human.

Structures are written as SMILES. Read-outs that look alike come from different tables or passages of the source.

Take `CCCCCCCCCCCCCCCC(=O)O[C@@H]1[C@@H](C)[C@@]2(O)[C@@H](C=C(CO)C[C@]3(O)C(=O)C(C)=C[C@@H]23)[C@H]2[C@]1(OC(C)=O)[C@]2(C)CO` [Compound 4, 12-O-hexadecanoyl-16-hydroxyphorbol-13-acetate]: the Epstein-Barr virus activation result with Epstein-Barr virus is recorded as “Epstein-Barr virus activation”. Moreover, the piscicidal effects entry in assay [1] is listed as “piscicidal effects”.

In the case of `CCCCCCCCCCCCCCCC(=O)O[C@@H]1[C@@H](C)[C@]2(O)[C@@H]3C=C(C)C(=O)[C@@H]3CC(CO)=C[C@H]2[C@H]2[C@]1(OC(C)=O)[C@@]2(C)CO` [Compound 5, 12-O-hexadecanoyl-4-deoxy-4α-16-hydroxyphorbol-13-acetate], in the assay on NK92 cells (8 μM, FIG. 7), the “activity for inducing IFN-γ production” value was “had activity for inducing IFN-γ production”.

On to `CCCCCCCCCCCCCCCC(=O)O[C@@H]1[C@@H](C)[C@@]2(O)[C@@H](C(=O)C(CO)=C[C@]3(O)C(=O)C(C)=C[C@@H]23)[C@H]2[C@]1(OC(C)=O)[C@@]2(C)CO` [Compound 1, 12-O-hexadecanoyl-7-oxo-5-ene-16-hydroxyphorbol-13-acetate], for which the “activity for inducing IFN-γ production” value in the assay on NK92 cells (40 nM, FIG. 8) is listed as “high activity for inducing IFN-γ production”.

As to `CCCCCCCCCCCCCCCC(=O)OC1C(C)C2(O)C(C(=O)C(CO)=CC3(O)C(=O)C(C)=CC32)C2C(C)(C)C12OC(C)=O` (centres unmarked) [Compound 2, 12-O-hexadecanoyl-7-oxo-5-ene-phorbol-13-acetate], the “activity for inducing IFN-γ production” value in the assay on NK92 cells (1.6 μM, FIG. 7) is given as “had activity for inducing IFN-γ production”.
